Patent publication US20160282364A1, “ASSAY FOR INSULIN-DEGRADING ENZYME (IDE) INHIBITORS” (PRESIDENT AND FELLOWS OF HARVARD COLLEGE, priority 2013, published 2016)
Several values for one entry are separate records, joined by “and”; a condition that tells them apart may be missing. Equal values may be shown once. Read-outs that look alike come from different tables or passages of the source. Ends that are not written are not given here.

How the values were obtained:
hIDE WT = molecular target: T1, hIDE WT (Homo sapiens, UniProt P14735); assay: Small molecule-enzyme mutant complementation study, wild type; type: biochemical
T1 construct: The reported N-His6-tagged human IDE42-1019 construct; made in house; host or cells: E. coli Rosetta 2 (DE3) pLysS
Source text: (§1) Protease assays with fluorogenic peptide substrates. […] All assay data points were obtained in duplicate.
(§2) Site-directed mutagenesis, expression, and purification of human IDE. The reported N-His6-tagged human IDE42-1019 construct was introduced in the expression plasmid pTrcHis-A (Invitrogen) using primers for uracil-specific excision reactions (USER) by Taq (NEB) and Pfu polymerases (PfuTurbo CX®, Agilent). The IDE gene was amplified with the primers 5′-[…]-dU-[…] and 5′-[…] G-dU-[…] (underlined sequences represent overhangs, and italics highlight the PCR priming sequence). Similarly, the pTrcHis-A vector was amplified for USER cloning with the primers 5′-[…] TGA-dU-[…] CCC and 5′-[…]-dU-[…]. Mutant IDE constructs were generated by amplifying the full vector construct with USER cloning primers introducing a mutant overhang (Table 5).
(§3) All PCR products were purified on microcentrifuge membrane columns (MinElute®, Qiagen) and quantified by UV absorbance (NanoDrop). Each fragment (0.2 pmol) was combined in a 10 μL reaction mixture containing 20 units DpnI (NEB), 0.75 units of USER mix (Endonuclease VIII and Uracil-DNA Glycosylase, NEB), 20 mM Tris-acetate, 50 mM potassium acetate, 10 mM magnesium acetate, 1 mM dithiothreitol at pH 7.9 (1× NEBuffer 4). The reactions were incubated at 37° C. for 45 min, followed by heating to 80° C. and slow cooling to 30° C. (0.2° C./s). The hybridized constructs were directly used for heat-shock transformation of chemically competent NEB turbo E. coli cells according to the manufacturer's instructions. Transformants were selected on carbenicillin LB agar, and isolated colonies were cultured overnight in 2 mL LB.
(§4) The plasmid was extracted using a microcentrifuge membrane column kit (Miniprep®, Qiagen), and the sequence of genes and vector junctions were confirmed by Sanger sequencing (Table 6). The plasmid constructs were transformed by heat-shock into chemically-competent expression strain Rosetta 2 (DE3) pLysS E. coli cells (EMD Millipore), and selected on carbenicillin/chloramphenicol LB agar. Cells transformed with IDE pTrcHis A constructs were cultured overnight at 37° C. in 2 XYT media (31 g in 1 L) containing 100 μg/mL ampicillin and 34 μg/mL chloramphenicol. Expression of His6-tagged IDE proteins was induced when the culture measured OD600 ˜0.6 by addition of isopropyl-β-D-1-thiogalactopyranoside (IPTG) to 1 mM final concentration, incubated overnight at 37° C., followed by centrifugation at 10,000 g for 30 min at 4° C.
(§5) Recombinant His6-tagged proteins were purified by Ni(II)-affinity chromatography (IMAC sepharose beads, GE Healthcare®) according to the manufacturer's instructions. The cell pellets were resuspended in pH 8.0 buffer containing 50 mM phosphate, 300 mM NaCl, 10 mM imidazole, 1% Triton X-100 and 1 mM tris(2-carboxyethyl)phosphine hydrochloride (TCEP), and were lysed by probe sonication for 4 min at 4° C., followed by clearing of cell debris by centrifugation at 10,000 g for 25 min at 4° C. The supernatant was incubated with Ni(II)-doped IMAC resin (2 mL) for 3 h at 4° C. The resin was washed twice with the cell resuspension/lysis buffer, and three times with pH 8.0 buffer containing 50 mM phosphate, 300 mM NaCl,50 mM imidazole and 1 mM TCEP. Elution was performed in 2 mL aliquots by raising the imidazole concentration to 250 mM and subsequently to 500 mM in the previous buffer. The fractions were combined and the buffer was exchanged to the recommended IDE buffer (R&D) using spin columns with 100 KDa molecular weight cut off membranes (Millipore). Protein yields were typically ˜10 μg/L, and >90% purity based on gel electrophoresis analysis (Coomassie stained).

IDE [1] = conditions: cited from earlier work; for Km / kcat / KM: IDE substrate; for Degradation: degradation kinetics compared to insulin
IDE [2] = assay: Literature survey of IDE substrates, in vitro degradation kinetics; type: biochemical; conditions: KM estimated based on IC50 for inhibition of insulin degradation
IDE [3] = conditions: inhibition of insulin degradation, cited from earlier work
hIDE F202R = molecular target: T2, hIDE F202R (Homo sapiens, UniProt P14735, F202R); assay: Small molecule-enzyme mutant complementation study; type: biochemical; conditions: F202R vs hIDE WT, batch 2
T2 construct: The reported N-His6-tagged human IDE42-1019 construct; made in house; host or cells: E. coli Rosetta 2 (DE3) pLysS
Source text: as §1, §2, §3, §4, §5

hIDE I310R = molecular target: T3, hIDE I310R (Homo sapiens, UniProt P14735, I310R); assay: Small molecule-enzyme mutant complementation study; type: biochemical; conditions: I310R vs hIDE WT, batch 2
T3 construct: The reported N-His6-tagged human IDE42-1019 construct; made in house; host or cells: E. coli Rosetta 2 (DE3) pLysS
Source text: as §1, §2, §3, §4, §5

hIDE W199F = molecular target: T4, hIDE W199F (Homo sapiens, UniProt P14735, W199F); assay: Small molecule-enzyme mutant complementation study; type: biochemical; conditions: W199F vs hIDE WT, batch 2
T4 construct: The reported N-His6-tagged human IDE42-1019 construct; made in house; host or cells: E. coli Rosetta 2 (DE3) pLysS
Source text: as §1, §2, §3, §4, §5

hIDE F202L = molecular target: T5, hIDE F202L (Homo sapiens, UniProt P14735, F202L); assay: Small molecule-enzyme mutant complementation study; type: biochemical; conditions: F202L vs hIDE WT, batch 1
T5 construct: The reported N-His6-tagged human IDE42-1019 construct; made in house; host or cells: E. coli Rosetta 2 (DE3) pLysS
Source text: as §1, §2, §3, §4, §5

hIDE K364A = molecular target: T6, hIDE K364A (Homo sapiens, UniProt P14735, K364A); assay: Small molecule-enzyme mutant complementation study; type: biochemical; conditions: K364A vs hIDE WT, batch 2
T6 construct: The reported N-His6-tagged human IDE42-1019 construct was introduced in the expression plasmid pTrcHis-A; made in house; host or cells: E. coli Rosetta 2 (DE3) pLysS
Source text: as §1, §2, §3, §4, §5

hIDE A198T = molecular target: T7, hIDE A198T (Homo sapiens, UniProt P14735, A198T); assay: Small molecule-enzyme mutant complementation study; type: biochemical; conditions: A198T vs hIDE WT, batch 2
T7 construct: The reported N-His6-tagged human IDE42-1019 construct; made in house; host or cells: E. coli Rosetta 2 (DE3) pLysS
Source text: as §1, §2, §3, §4, §5

IDE [4] = molecular target: IDE (Homo sapiens, UniProt P14735); assay: Protease assay with fluorogenic peptide substrate Mca-[…](Dnp)-OH (IDE species not given); type: biochemical; set-up: The proteases IDE42-1019, recombinant human IDE42-1019 (R&D Systems); conditions: heavy-labeled vs 6bK
Method: All data points and error bars represent mean±SEM. Significance tests were performed using two-tail Student's t-test, and significance levels shown in the figures are p<0.05 (*) or p<0.01 (**) versus the vehicle-only control group. The in vitro selection of the DNA-templated macrocycle libraryl^16,17 used 20 μg His6-tagged mouse IDE immobilized on cobalt magnetic beads (Dynabeads, Invitrogen). IDE proteolytic activity was assayed with fluorogenic peptide Mca-[…](Dnp)-OH (R&D). IDE inhibition was confirmed using an anti-insulin antibody time-resolved FRET assay (Cysbio), and using an LCMS assay for CGRP cleavage fragments CGRP1-17 and CGRP18-37 in plasma^18. […] Protease assays with fluorogenic peptide substrates. […] (R&D). All assay data points were obtained in duplicate.

T1 sequence (P14735 42-1019): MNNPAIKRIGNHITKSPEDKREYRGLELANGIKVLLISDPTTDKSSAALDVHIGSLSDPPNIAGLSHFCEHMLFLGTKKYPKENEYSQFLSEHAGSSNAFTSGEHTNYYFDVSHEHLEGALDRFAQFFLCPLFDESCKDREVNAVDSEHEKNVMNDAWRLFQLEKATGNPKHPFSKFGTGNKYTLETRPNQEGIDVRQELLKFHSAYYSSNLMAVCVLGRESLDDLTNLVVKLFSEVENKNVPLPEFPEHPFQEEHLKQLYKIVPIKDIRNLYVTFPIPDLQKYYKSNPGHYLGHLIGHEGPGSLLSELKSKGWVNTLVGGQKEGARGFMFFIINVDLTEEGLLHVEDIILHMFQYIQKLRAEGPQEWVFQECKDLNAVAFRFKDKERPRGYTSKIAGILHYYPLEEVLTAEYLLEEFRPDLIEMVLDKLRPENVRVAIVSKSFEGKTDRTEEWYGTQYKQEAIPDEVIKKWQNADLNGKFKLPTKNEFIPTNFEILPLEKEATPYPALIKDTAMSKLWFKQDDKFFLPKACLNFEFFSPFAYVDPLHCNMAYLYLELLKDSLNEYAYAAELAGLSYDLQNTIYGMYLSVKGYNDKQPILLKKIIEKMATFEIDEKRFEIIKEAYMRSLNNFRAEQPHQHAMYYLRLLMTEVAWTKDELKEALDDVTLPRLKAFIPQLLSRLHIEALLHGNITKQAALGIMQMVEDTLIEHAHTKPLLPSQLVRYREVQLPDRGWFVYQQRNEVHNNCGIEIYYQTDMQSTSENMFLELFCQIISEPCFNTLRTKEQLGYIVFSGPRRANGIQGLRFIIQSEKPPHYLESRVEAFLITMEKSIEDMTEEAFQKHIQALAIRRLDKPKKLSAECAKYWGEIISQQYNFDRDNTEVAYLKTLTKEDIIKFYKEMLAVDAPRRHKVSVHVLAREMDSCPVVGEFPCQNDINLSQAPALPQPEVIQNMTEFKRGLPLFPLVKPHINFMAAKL
T4 sequence (P14735 42-1019 W199F): as the sequence (P14735 42-1019) above, with W158F counted along it
T5 sequence (P14735 42-1019 F202L): as the sequence (P14735 42-1019) above, with F161L counted along it
T7 sequence (P14735 42-1019 A198T): as the sequence (P14735 42-1019) above, with A157T counted along it
Sequence of IDE (Homo sapiens, UniProt P14735) (P14735 42-1019): as the sequence (P14735 42-1019) above
T3 sequence (P14735 42-1019 I310R): as the sequence (P14735 42-1019) above, with I269R counted along it
T2 sequence (P14735 42-1019 F202R): as the sequence (P14735 42-1019) above, with F161R counted along it
T6 sequence (P14735 42-1019 K364A): as the sequence (P14735 42-1019) above, with K323A counted along it

Compound | Km (IDE [1]) | Degradation (IDE [1]) | kcat (IDE [1]) | other results
CC(C)(C)c1ccc(CC2NC(=O)C(CC3CCCCC3)NC(=O)C(CCC(N)=O)NC(=O)C=CC(=O)NC(C(N)=O)CCCCNC2=O)cc1 (centres unmarked) [Compound 9] | – | – | – | IC50 shift (hIDE WT; batch 1 (reference)): 1.0 fold
bradykinin (RPPGFSPFR; Bradykinin; UniProt P01042 381-389, looked up) [IDE substrate in vitro] | 4.2 µM | Slow | – | –
β-endorphin (1-31) | 13 µM | Slow | 0.35 s⁻¹ | –
amyloid-β peptide(40/42) [Aβ (40, 42)] | 1.23 µM | Fast | 0.867 s⁻¹ | –
relaxin | – | Fast | – | Km (IDE [2]): 0.11 µM; IC50 (IDE [3]; read-out: IC50): 54 nM
pancreastatin (1-49) (SEALAVDGAGKPGAEEAQDPEGKGEQEHSQQKEEEEEMAVVPQGLFRGG; Pancreastatin; UniProt P10645 272-320, looked up, fragment) [IDE substrate in vitro] | 41.7 µM | Slow | 0.177 s⁻¹ | –
dynorphin A (1-10) | 39.4 µM | – | 0.0623 s⁻¹ | –
amylin (KCNTATCATQRLANFLVHSSNNFGAILSSTNVGSNTY; not fully specified (C-terminus, bridges); cysteine pairing not given here; UniProt P10997 34-70, looked up) [IDE substrate in vitro] | ~0.3 µM | Medium | – | Km (IDE [2]): 0.3 µM; IC50 (IDE [3]; read-out: IC50): 160 nM
dynorphin A (1-9) | 60.5 µM | – | 0.0055 s⁻¹ | –
insulin-like growth factor-1 [IGF-1] | – | Slow | – | KM (IDE [1]): Weak
kallidin | 7.3 µM | Slow | – | –
B-type natriuretic peptide [B-type NP (BNP)] | – | Slow | – | KM (IDE [1]): weak; IC50 (IDE [3]; read-out: IC50): > 1000 nM
atrial natriuretic peptide [atrial NP (ANP)] | 0.06 µM | Fast | – | –
CC(C)CC1NC(=O)C(CCC(N)=O)NC(=O)C=CC(=O)NC(C(N)=O)CCCCNC(=O)C(Cc2ccc(C(=O)c3ccccc3)cc2)NC1=O (centres unmarked) [Compound 13] | – | – | – | IC50 shift (hIDE WT; batch 1 (reference)): 1.0 fold; IC50 shift (hIDE WT; batch 2 (reference)): 1.0 fold; IC50 shift (hIDE WT; batch 3 (reference)): 1.0 fold; IC50 shift (hIDE F202R): 4.1 fold; IC50 shift (hIDE I310R): 0.7 fold; IC50 shift (hIDE W199F): 3.2 fold; IC50 shift (hIDE F202L): 2.3 fold; IC50 shift (hIDE K364A): 10.0 fold; IC50 shift (hIDE A198T): 13.6 fold
NC(=O)C1CCCCNC(=O)C(Cc2ccc(C(=O)c3ccccc3)cc2)NC(=O)C(CC2CCCCC2)N[13C](=O)[13CH]([13CH2][13CH2][13CH2][13CH2][15NH2])[15NH]C(=O)C=CC(=O)N1 (centres unmarked) [heavy 6bK] | – | – | – | IC50 compared with 6bK (IDE [4]): identical
dynorphin A (1-13) (YGGFLRRIRPKLK; Dynorphin A(1-13); UniProt P01213 207-219, looked up) [IDE substrate in vitro] | 40.6 µM | – | 0.0623 s⁻¹ | –
insulin-like growth factor-2 [IGF-2] | – | Fast | – | Km (IDE [2]): 0.1 µM; IC50 (IDE [3]; read-out: IC50): 60 nM
dynorphin B (1-9) (YGGFLRRQF; Rimorphin; UniProt P01213 226-234, looked up, fragment) [IDE substrate in vitro] | 26.8 µM | – | 0.172 s⁻¹ | –
growth hormone releasing factor (1-29) | 11.9 µM | Slow | 0.39 s⁻¹ | –
dynorphin B (1-13) | 18.3 µM | – | 0.252 s⁻¹ | –
dynorphin A (1-17) | 37.4 µM | – | 0.307 s⁻¹ | –
glucagon | 3.5 µM and 3.46 µM | Slow | 0.633 s⁻¹ and 0.642 s⁻¹ | IC50 (IDE [3]): weak
transforming growth factor-alpha [TGF-α] | – | Fast | – | Km (IDE [2]): 0.15 µM; IC50 (IDE [3]; read-out: IC50): 80 nM
dynorphin A (1-8) (YGGFLRRI; Dynorphin A(1-8); UniProt P01213 207-214, looked up) [IDE substrate in vitro] | 63.5 µM | – | 0.011 s⁻¹ | –
insulin | < 0.03 µM | Fast | 0.0253 s⁻¹ | –
relaxin-3 | – | Fast | – | Km (IDE [2]): 0.36 µM; IC50 (IDE [3]; read-out: IC50): 182 nM
somatostatin-14 | 7.5 µM | Slow | 0.38 s⁻¹ | –
